Measured values reported in patent US20100087768A1, “TRANSDERMAL DRUG DELIVERY SYSTEM FOR LIQUID ACTIVE INGREDIENT” (priority 2008, published 2010).
Values joined by “and” are separate entries in the source; they are usually repeats but may differ in a detail not shown here. Equal values may be shown once. Read-outs that look alike come from different tables or passages of the source.

Experiments:
[1] = Shear adhesion / holding power (PSTC-7) of plain adhesives and transdermal devices; format: physicochemical
Procedure: Holding power (shear adhesion): The ability of a tape to resist the static forces applied in the same plane as the backing. Usually expressed in a time required for a given weight per unit area to cause a given amount of tape to come loose from a vertical panel.
Throughout this specification, including the claims, the adhesive properties of shear adhesion and peel adhesion are measured employing the test methods adopted by the PSTC (Pressure Sensitive Tape Council) for Peel Adhesion (PSTC-1 Peel Adhesion of Single Coated Pressure Sensitive Tapes at 180° Angle) and Shear Adhesion (PSTC-7 Holding Power of Pressure Sensitive Tapes). The unit for peel adhesion is newtons/inch, and the unit for holding power (shear adhesion) is minutes. The test of holding power is performed under a load of 4 lbs/in^2 (28 kPa) and at 72° F. (22° C.).
Adhesive properties were measured as described above. The plain adhesive values given are those of the dry adhesive polymer composition without added components.

[2] = General appearance of patches with non-volatile coadjuvants (visual and tactile inspection); format: physicochemical; conditions: selegiline patches in DT 87-2353
[3] = Loss of selegiline during manufacture (after drying), HPLC; format: physicochemical; conditions: up to 15%
Procedure: Lots with DT 87-2353 as adhesive, selegiline and increasing amounts of squalene (SQ) and triethylcitrate (TEC) were manufactured as described in “Description of the manufacturing process” above and the amount of selegiline present after drying was measured.
Selegiline content was analysed by HPLC using a suitable technique

shaved skin = experiment: Evaluation of dermal irritation in rabbits (Example 3); format: in vivo, rabbits (New Zealand Albino); set-up: key to Score for Skin Erythema 1 h / Score for Skin Erythema 2 h / Score for Skin Erythema 4 h / Score for Skin Erythema 6 h / Score for Skin Erythema 8 h / Score for Skin Erythema 24 h: 0: No redness (erythema).; 1: Barely perceptible redness.; 2: Well defined redness.; 3: Severe Erythema (beet redness) to slight eschar formation (injuries in depth)
Procedure: Dermal irritation was tested using transdermal delivery devices manufactured as described in “Description of the manufacturing process” above with acrylic adhesives with different functionality and 15% of selegiline, all of them with shear value of more than 1.5 hours and less than 15 hours for the plain adhesive and without crosslinker agents (see Table 3). Each formulation was tested on 6 rabbits, with evaluations at 1, 2, 4, 6, 8 and 24 hrs. The degree of adhesion and glue residue was also evaluated with skin reactions on an open-label 1-day-study. Rabbits belonging to the New Zealand Albino strain were used as animal model. According protocol, and after 14 days of acclimatization, the fur of back of 6 male rabbits was thoroughly shaved. Twenty four hours later one patch of each formulation of 10.6 cm^2 was glued in each rabbit to the shaved skin, according to a randomized schedule.
Pure selegiline (25 μl) was used as control covered by Transpore tape (from 3M).
The irritation observed was classified according to the following scoring system: • Scale used for scoring erythema: • 0: No redness (erythema). • 1: Barely perceptible redness. • 2: Well defined redness. • 3: Severe Erythema (beet redness) to slight eschar formation (injuries in depth).
Reactions were scored as if they were covering the entire skin area treated (maximum score).
The Dermal Irritation Index (DII) was calculated as the average of the individual data at each evaluation time.
The dermal irritation indexes obtained were interpreted following ISO/WD 10993-10: […]

[4] = 1% selegiline in the coadjuvant, seven days at 40° C.
[5] = 1% selegiline in the coadjuvant, seven days at 40° C., control pure selegiline

CCN(C)C(=O)Oc1cccc([C@H](C)N(C)C)c1 [Rivastigmine, rivastigmine]
Effect of the drug on cohesiveness of the adhesives (measured by the shear test) [1]: reduces the cohesiveness in all the adhesives

CCOC(=O)CC(O)(CC(=O)OCC)C(=O)OCC [TEC, triethylcitrate]
Amount up to which the coadjuvant is suitable [2]: up to 15%
Effect of coadjuvant on selegiline loss during drying, in words [3]: diminishes the amount of active drug loss during drying in a concentration dependent manner
Impurity rrt: 1.56 [4]: 0.42%
Impurity rrt: 2.09 [4]: 0.98%
Selegiline base (chromatographic purity) [5]: 98.58%

C#CCN(C)[C@H](C)Cc1ccccc1 [pure selegiline, selegiline]
Effect of the drug on cohesiveness of the adhesives (measured by the shear test) [1]: reduces the cohesiveness in all the adhesives
Score for Skin Erythema 1 h (shaved skin; individual rabbits 1-6, 10.6 cm^2 patch, 1 h): 0
Score for Skin Erythema 2 h (shaved skin; individual rabbits 1-6, 2 h): 0 (5×) and 1
Score for Skin Erythema 4 h (shaved skin; individual rabbits 1-6, 4 h): 0 (5×) and 1
Score for Skin Erythema 6 h (shaved skin; individual rabbits 1-6, 6 h): 0 (3×) and 1 (3×)
Score for Skin Erythema 8 h (shaved skin; individual rabbits 1-6, 8 h): 1
Score for Skin Erythema 24 h (shaved skin; individual rabbits 1-6, 24 h): 1 (5×) and 0
DII (Dermal Irritation Index) (shaved skin; individual rabbits 1-6, average over evaluation times): 0.3 (4×) and 0.5 and 0.8
Erythema Score 1 h (shaved skin; mean of 6 rabbits, 1 h): 0.0
Erythema Score 2 h (shaved skin; mean of 6 rabbits, 2 h): 0.2
Erythema Score 4 h (shaved skin; mean of 6 rabbits, 4 h): 0.2
Erythema Score 6 h (shaved skin; mean of 6 rabbits, 6 h): 0.5
Erythema Score 8 h (shaved skin; mean of 6 rabbits, 8 h): 1.0
Erythema Score 24 h (shaved skin; mean of 6 rabbits, 24 h): 0.8
DII (Dermal Irritation Index), Erythema Score line (shaved skin; overall, 6 rabbits, all times): 0.4
Impurity (any secondary peak): ≦0.05%
Selegiline base (chromatographic purity): 99.98%

CC(C)=CCC/C(C)=C/CC/C(C)=C/CC/C=C(\C)CC/C=C(\C)CCC=C(C)C [squalene]
Amount up to which the coadjuvant is suitable [2]: up to 15%
Effect of coadjuvant on selegiline loss during drying, in words [3]: diminishes the amount of active drug loss during drying in a concentration dependent manner
Impurity rrt: 2.04 [4]: 0.07%
Selegiline base (chromatographic purity) [5]: 99.89%
